Activity calls are given as the source filed them.

In one test the target is Hexokinase-1 (Homo sapiens, UniProt P19367). Description: hexokinase 1 activity inhibitors, potency – biochemical, set 2, resazurin fluorescence coupled readout, selectivity assay for HKDC1 inhibitor project, SAR follow-up (AID 588356). Format: functional. For orientation: The colour change of resazurin is a common sign of viable cells or microbes.
The target of test [1] is T1, Replicative DNA helicase DnaB (Mycobacterium tuberculosis, UniProt P9WMR3).
T1 sequence (P9WMR3 whole entry): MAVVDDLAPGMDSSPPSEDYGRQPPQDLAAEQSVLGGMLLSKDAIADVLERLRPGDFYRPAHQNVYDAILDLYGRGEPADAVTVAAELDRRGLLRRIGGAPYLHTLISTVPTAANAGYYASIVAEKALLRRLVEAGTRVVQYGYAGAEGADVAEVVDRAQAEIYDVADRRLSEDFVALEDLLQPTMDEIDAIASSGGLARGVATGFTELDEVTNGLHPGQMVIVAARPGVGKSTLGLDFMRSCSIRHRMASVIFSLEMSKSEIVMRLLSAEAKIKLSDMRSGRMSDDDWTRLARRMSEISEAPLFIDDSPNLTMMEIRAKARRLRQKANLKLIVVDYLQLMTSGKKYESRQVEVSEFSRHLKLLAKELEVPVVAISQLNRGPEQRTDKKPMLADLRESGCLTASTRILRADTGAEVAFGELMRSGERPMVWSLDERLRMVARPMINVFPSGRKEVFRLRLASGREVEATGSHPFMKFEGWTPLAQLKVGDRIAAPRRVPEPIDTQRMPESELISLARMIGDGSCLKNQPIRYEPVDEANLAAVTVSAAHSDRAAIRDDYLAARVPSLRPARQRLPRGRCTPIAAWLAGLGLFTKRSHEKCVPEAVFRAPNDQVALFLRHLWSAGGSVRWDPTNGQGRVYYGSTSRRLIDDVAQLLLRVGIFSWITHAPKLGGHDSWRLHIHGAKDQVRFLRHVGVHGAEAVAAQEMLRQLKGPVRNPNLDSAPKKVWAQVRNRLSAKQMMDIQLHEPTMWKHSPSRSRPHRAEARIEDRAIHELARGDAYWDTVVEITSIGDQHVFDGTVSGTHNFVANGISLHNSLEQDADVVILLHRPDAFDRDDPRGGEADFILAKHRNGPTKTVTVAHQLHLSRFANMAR
Put plainly: DnaB intein splicing inhibitors, dose response, biochemical, cell-free fluorescence (AID 449749). The class given is functional.

Test [2] deals with T2, Hexokinase HKDC1 (Homo sapiens, UniProt Q2TB90).
T2 sequence (Q2TB90 whole entry): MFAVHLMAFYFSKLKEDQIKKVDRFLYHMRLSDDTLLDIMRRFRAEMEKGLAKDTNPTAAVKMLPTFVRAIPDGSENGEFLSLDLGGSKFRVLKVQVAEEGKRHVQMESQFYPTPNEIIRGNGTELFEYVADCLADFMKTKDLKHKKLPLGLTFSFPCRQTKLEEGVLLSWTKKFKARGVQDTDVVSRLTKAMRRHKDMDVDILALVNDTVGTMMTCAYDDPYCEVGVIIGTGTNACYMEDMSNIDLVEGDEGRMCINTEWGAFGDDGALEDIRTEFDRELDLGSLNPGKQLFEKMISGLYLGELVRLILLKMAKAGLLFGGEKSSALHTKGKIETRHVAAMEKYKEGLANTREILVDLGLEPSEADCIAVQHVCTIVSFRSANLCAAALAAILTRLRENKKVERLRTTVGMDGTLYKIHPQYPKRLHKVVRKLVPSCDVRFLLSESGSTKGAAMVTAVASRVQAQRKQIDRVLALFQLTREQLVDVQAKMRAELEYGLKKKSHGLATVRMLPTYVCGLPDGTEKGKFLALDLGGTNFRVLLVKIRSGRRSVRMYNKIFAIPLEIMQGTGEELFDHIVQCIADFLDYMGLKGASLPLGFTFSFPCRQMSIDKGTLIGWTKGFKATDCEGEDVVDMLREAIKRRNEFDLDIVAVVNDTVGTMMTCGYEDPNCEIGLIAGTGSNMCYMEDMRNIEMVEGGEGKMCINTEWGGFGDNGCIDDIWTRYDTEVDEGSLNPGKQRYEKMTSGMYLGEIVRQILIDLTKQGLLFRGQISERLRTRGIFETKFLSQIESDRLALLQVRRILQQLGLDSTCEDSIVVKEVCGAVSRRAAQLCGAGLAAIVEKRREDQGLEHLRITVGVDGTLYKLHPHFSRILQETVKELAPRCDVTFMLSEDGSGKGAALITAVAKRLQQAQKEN
Description: analog inhibition of human HKDC1 activity – biochemical, set 2, SAR follow-up (AID 588355). The class given is functional.

The target in test [3] is T2, Hexokinase HKDC1. Description: inhibition of HKDC1 glucose phosphorylation – biochemical, W721R variant, dose response (AID 504729). Format: functional.
A further test deals with T3, Protein RecA (Mycobacterium tuberculosis, UniProt P9WHJ3).
T3 sequence (P9WHJ3 whole entry): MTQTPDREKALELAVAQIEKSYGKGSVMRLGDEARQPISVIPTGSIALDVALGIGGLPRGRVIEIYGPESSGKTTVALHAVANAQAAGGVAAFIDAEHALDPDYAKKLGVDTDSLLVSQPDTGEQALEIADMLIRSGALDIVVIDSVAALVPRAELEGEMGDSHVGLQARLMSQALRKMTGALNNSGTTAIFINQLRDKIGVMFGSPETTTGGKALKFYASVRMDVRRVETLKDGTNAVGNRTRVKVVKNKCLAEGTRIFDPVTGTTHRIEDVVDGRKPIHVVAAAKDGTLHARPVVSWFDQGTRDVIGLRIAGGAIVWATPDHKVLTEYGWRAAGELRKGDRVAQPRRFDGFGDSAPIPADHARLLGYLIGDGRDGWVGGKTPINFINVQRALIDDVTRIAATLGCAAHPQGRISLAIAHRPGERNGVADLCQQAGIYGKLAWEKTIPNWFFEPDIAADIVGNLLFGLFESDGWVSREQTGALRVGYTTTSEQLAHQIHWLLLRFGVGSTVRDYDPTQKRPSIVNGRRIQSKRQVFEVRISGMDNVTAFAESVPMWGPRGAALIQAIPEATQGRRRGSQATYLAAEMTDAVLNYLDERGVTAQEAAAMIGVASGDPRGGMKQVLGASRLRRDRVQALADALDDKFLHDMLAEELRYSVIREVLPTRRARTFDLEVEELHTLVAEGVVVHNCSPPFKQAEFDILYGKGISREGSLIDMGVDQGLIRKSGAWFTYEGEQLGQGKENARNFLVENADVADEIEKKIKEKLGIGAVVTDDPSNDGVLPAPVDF
Description: Fluorescence Cell-Free Homogeneous Dose Retest to Identify Inhibitors of RecA-Intein Splicing Activity. [Related pubchem assays (depositor defined):AID2097, AID2223, AID489010, AID492950]. Format: functional.

Test [4] deals with Beta-lactamase (Pseudomonas aeruginosa, UniProt Q79MP6).
For test [5], the system named is HEK293. Description: optical interference in Abeta FP readout, dose response, artefact control for IDE activator project, biochemical, fluorescence polarization (AID 588442). The class given is functional, cell-based. Particulars: Homo sapiens.
Test [6] deals with HEK293. Put plainly: membrane integrity loss in HEK cells – cell-based, fluorescence, cytotoxicity control for IDE activator project, dose response (AID 588440).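 Also: cytotoxicity by LDH release measuring loss of membrane integrity.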 The class given is functional. The following applies: Homo sapiens.
The next test has as its target Keap1/Nrf2 (Homo sapiens, UniProt Q14145). Put plainly: disruptors of Keap1 binding to Nrf2 peptide – biochemical, fluorescence polarization, cherry-picked samples, dose response (AID 588683).
The target in the next test is ORF 73 (Human herpesvirus 8, UniProt O40947). Description: KSHV LANA DNA-binding disruption – biochemical, fluorescence polarization, cherry-picked samples, dose response (AID 504725).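 Also: fluorescence polarization of a labeled DNA duplex reporting LANA DNA binding; potency is for inhibitors that block LANA binding to the DNA.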 Further details: species or system Human gammaherpesvirus 8. (Fluorescence polarisation rises when a labelled molecule tumbles more slowly, as on binding a larger partner.)
Test [7] concerns the target Beta-lactamase (Salmonella choleraesuis (strain SC-B67), UniProt Q5J463).
The target in test [8] is T4, Insulin-degrading enzyme (Homo sapiens, UniProt P14735). Description: cellular IDE activation of Abeta substrate cleavage – fluorescence polarization, HEK cells, dose response (AID 588439). Format: functional, cell-based.
The target of test [9] is T4, Insulin-degrading enzyme. Description: recombinant IDE activation, cell-free – biochemical, fluorescence polarization, counter-screen for IDE activator project, dose response (AID 588681).
Test [10] can be described thus: NIH3T3 cell viability loss – ATP luminescence, mouse fibroblasts, counter-screen, dose response (AID 2010).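 Also: cells exposed to compound for about 90 hours before reading.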 The class given is functional, cell-based.
Test [11] in a line: luciferase reporter signal suppression in cells – H4 neuroglioma cells, luminescence, dose response (AID 1990). The class given is functional, cell-based.
A short description of test [12]: viability of uninfected HEp-2 cells – cell-based, HTS, cytotoxicity control for RSV inhibitor project, dose response (AID 2410). Particulars: human respiratory syncytial virus. Format: functional.
Another test has as its target DNA topoisomerase (Yersinia pestis, UniProt A0A2S9PM60). Put plainly: Yersinia topoisomerase I cleavage product accumulation – biochemical, cherry-pick, dose response (AID 588525).
A short description of test [13]: alpha-synuclein stem-loop luciferase translation blockers – H4 neuroglioma cells, luminescence, confirmation (AID 1988). Format: functional, cell-based.
Test [14] in a line: Luminescence Cell-Based Dose Response HTS to Identify Inhibitors of 5'UTR Stem-Loop Driven Prion Protein mRNA Translation in H4 Neuroglioblastoma Cells. [Related pubchem assays: 1827 (Project Summary), 1813 (Primary HTS)]. The class given is functional.
A short description of test [15]: Trypanosoma cruzi growth suppression in host cells – NIH3T3 host cells, beta-gal luminescence, confirmation (AID 2044).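 Also: intracellular parasites grown in NIH/3T3 mouse fibroblasts as host cells; luminescent beta-galactosidase reporter signal from transgenic T. cruzi replicating inside host cells; inhibitors lower the luminescence signal.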 The class given is functional, cell-based.

T4 sequence (P14735 whole entry): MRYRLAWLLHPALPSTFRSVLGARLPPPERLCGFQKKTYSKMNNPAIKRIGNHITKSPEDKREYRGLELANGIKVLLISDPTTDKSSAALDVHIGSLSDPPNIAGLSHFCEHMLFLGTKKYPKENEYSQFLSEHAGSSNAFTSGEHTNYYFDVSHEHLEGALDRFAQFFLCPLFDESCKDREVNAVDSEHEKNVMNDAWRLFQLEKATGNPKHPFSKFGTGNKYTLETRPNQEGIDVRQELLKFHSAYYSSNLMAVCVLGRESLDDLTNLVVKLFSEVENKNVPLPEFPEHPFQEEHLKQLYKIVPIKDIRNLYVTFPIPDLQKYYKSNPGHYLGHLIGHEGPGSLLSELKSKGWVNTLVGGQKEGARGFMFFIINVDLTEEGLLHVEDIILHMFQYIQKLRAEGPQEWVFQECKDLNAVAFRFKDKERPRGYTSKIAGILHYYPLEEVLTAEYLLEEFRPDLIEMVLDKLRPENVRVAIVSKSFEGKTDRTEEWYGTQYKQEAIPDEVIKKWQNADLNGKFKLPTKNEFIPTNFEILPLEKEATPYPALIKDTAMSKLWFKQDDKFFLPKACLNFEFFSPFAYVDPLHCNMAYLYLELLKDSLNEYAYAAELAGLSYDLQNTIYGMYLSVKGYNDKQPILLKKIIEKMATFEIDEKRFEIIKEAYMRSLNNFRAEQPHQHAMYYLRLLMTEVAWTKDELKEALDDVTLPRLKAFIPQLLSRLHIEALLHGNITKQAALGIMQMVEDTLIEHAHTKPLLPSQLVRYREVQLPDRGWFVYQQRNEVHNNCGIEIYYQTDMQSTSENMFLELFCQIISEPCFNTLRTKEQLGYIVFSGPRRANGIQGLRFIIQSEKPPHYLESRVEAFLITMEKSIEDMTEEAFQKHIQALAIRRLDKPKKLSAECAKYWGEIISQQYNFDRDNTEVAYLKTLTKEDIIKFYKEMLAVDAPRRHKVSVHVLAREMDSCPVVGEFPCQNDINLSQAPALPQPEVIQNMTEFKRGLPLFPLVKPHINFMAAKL
Sequence of Hexokinase-1 (P19367 whole entry): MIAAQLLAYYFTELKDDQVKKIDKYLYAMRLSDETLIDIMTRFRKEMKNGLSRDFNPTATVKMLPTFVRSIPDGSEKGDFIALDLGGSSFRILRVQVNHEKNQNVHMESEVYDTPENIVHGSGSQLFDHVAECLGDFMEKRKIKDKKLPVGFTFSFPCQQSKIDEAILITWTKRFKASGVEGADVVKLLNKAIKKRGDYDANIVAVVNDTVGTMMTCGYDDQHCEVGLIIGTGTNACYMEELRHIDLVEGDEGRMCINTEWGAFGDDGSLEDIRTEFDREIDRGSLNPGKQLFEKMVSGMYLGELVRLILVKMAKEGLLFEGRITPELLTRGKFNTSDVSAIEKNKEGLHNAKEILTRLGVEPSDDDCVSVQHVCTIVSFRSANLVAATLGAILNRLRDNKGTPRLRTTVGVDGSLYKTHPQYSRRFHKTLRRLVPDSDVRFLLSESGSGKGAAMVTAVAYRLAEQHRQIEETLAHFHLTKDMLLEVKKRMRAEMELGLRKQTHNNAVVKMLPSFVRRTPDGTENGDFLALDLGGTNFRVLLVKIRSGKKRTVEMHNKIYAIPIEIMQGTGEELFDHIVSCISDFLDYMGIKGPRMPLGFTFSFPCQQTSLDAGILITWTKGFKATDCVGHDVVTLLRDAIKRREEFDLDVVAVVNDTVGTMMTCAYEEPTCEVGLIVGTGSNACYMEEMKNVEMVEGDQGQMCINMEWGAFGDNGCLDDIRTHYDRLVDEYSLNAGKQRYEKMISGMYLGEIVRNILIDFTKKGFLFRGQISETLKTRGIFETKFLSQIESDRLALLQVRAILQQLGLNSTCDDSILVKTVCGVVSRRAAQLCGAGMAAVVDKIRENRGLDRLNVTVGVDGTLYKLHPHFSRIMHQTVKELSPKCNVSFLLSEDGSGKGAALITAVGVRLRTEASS
Sequence of Beta-lactamase (Pseudomonas aeruginosa, UniProt Q79MP6) (Q79MP6 whole entry): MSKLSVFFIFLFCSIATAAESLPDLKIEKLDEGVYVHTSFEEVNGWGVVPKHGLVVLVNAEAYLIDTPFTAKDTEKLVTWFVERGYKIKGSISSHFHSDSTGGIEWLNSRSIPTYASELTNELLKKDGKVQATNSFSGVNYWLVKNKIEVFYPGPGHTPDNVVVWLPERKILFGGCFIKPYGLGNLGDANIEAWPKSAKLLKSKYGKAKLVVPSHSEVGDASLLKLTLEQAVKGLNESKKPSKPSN
Sequence of Keap1/Nrf2 (Q16236 whole entry): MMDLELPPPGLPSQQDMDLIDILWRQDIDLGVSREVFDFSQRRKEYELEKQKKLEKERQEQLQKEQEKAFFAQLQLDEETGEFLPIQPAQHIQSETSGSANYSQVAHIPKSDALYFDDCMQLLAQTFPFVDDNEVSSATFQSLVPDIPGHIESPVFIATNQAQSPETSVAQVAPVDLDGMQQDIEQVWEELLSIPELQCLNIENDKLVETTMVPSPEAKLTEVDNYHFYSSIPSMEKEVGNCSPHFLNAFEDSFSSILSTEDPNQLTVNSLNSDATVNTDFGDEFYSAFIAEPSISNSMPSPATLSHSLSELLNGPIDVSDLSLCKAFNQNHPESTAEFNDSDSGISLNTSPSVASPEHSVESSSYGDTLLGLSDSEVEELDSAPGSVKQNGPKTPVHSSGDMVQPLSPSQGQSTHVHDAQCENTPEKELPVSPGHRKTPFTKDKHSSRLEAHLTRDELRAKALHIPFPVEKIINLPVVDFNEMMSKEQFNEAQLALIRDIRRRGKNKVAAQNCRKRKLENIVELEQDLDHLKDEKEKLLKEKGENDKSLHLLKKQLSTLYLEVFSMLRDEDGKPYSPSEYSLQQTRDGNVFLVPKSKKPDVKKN
Sequence of Keap1/Nrf2 (Q14145 whole entry): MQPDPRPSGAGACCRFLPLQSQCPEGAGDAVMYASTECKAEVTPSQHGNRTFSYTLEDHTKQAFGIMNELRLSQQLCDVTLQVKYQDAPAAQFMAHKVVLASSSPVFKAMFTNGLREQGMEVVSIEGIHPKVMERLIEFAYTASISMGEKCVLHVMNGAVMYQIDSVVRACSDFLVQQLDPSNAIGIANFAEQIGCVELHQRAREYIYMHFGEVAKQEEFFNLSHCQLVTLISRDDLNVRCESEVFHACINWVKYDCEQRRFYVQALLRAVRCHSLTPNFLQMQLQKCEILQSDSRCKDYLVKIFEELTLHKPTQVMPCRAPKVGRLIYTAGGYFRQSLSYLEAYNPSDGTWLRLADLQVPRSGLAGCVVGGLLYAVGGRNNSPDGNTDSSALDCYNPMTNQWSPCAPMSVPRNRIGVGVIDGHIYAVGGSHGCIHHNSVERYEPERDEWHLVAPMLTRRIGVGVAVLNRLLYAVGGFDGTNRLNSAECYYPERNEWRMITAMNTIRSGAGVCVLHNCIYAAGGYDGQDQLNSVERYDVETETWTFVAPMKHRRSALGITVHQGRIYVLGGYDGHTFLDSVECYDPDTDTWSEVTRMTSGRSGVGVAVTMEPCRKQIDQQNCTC
Sequence of ORF 73 (O40947 whole entry): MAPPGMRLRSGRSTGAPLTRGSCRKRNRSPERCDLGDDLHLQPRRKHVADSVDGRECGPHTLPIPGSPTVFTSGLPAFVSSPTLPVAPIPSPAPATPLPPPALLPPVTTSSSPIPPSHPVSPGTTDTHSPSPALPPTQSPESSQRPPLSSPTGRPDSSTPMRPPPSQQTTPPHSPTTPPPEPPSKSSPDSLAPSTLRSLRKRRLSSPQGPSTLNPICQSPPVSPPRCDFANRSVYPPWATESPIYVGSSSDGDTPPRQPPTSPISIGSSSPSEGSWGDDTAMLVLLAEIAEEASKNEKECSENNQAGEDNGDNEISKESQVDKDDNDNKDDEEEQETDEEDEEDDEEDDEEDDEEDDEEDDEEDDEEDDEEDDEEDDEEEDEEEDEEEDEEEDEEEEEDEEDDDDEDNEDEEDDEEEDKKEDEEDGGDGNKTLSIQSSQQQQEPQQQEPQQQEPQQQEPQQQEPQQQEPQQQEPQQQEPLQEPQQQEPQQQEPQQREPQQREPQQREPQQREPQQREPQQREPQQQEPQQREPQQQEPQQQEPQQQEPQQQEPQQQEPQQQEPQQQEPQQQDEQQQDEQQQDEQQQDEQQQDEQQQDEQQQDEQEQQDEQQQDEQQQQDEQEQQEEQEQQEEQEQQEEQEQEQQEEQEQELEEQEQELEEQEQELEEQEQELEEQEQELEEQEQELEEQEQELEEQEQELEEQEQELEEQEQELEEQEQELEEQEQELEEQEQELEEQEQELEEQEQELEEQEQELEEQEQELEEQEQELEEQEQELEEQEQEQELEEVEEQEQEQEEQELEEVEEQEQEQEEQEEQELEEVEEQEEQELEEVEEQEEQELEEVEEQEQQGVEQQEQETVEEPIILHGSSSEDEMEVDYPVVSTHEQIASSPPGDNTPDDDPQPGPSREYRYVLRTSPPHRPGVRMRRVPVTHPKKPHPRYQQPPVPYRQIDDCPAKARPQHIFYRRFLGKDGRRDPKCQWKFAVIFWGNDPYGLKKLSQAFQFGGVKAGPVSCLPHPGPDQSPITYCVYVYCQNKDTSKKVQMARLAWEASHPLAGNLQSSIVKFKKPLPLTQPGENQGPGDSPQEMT
Sequence of Beta-lactamase (Salmonella choleraesuis (strain SC-B67), UniProt Q5J463) (Q5J463 whole entry): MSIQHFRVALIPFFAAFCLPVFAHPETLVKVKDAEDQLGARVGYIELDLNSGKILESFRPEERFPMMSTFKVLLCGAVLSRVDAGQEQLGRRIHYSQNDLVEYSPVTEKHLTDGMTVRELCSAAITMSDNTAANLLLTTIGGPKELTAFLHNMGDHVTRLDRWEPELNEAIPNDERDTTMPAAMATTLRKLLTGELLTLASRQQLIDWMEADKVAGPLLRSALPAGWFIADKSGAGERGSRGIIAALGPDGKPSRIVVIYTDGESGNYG

On to `CC(=O)NC1C(=O)N(CCN2CCOCC2)c2ccc(C)cc21` (stereo not given), for which the IC50 (in general, the point on the concentration scale where inhibition reaches its midpoint) at Hexokinase-1 is > 80 µM (inactive); at Hexokinase HKDC1 [2] it was 4.45 µM (active); on Hexokinase HKDC1 [3] it was 4.71 µM (active). Besides, the AC50 (usually the midpoint of the concentration-response curve, whichever way the signal moves) in test [1] was 22.1 µM (active). The EC50 – broadly, the concentration that produces a half-maximal response – at Protein RecA is 8.53 µM (active).
For the molecule `CNc1ccc2c3c(cccc13)C(=O)N(C)C2=O`, the IC50 was 3.92 µM (active) on Beta-lactamase [4], > 89.3 µM (inactive) in the test with HEK293 [6] and 2.2 µM (active) at Beta-lactamase [7]. Also, the results for the EC50 with HEK293 [5], at Insulin-degrading enzyme [8] and at Insulin-degrading enzyme [9] were 6.57 µM (active), > 54.8 µM (inactive) and > 54.8 µM (inactive), respectively. Further, the AC50 was 0.399 µM (active) on Keap1/Nrf2 and 0.588 µM (active) on ORF 73.
In the case of `COc1ccc(-c2nc3c(c(=O)[nH]c(=O)n3Cc3ccccc3)n2Cc2ccccc2)cc1`, the EC50 in test [10] was > 60 µM (inconclusive); in test [11], 26.7 µM (active); in test [13] it was 17.7 µM (active); in test [14] it was > 120 µM (not active); in test [15] it was 0.826 µM (active). In addition, the CC50 (in general, the concentration at which the toxic effect on the cells reaches its halfway point) in test [12] is 7.31 µM (active). In addition, the AC50 on DNA topoisomerase is 7.41 µM (active).

The values above are taken from ChEMBL document CHEMBL1201862, “PubChem BioAssay data set” (2004).
